The results in this text go back to BindingDB's records for doi:10.1016/j.bmc.2006.09.058 (Purdue University, 2007).

In general, EC50 refers to the concentration needed to bring the measured effect to its halfway point.

For this test, the target named is Sodium-dependent serotonin transporter (Homo sapiens, UniProt P31645, W103C). Kind of test: Decrease in [3H]5-HT uptake at human SERT W103C mutant transfected in HEK293 cells.
Sequence of Sodium-dependent serotonin transporter (P31645 whole entry W103C): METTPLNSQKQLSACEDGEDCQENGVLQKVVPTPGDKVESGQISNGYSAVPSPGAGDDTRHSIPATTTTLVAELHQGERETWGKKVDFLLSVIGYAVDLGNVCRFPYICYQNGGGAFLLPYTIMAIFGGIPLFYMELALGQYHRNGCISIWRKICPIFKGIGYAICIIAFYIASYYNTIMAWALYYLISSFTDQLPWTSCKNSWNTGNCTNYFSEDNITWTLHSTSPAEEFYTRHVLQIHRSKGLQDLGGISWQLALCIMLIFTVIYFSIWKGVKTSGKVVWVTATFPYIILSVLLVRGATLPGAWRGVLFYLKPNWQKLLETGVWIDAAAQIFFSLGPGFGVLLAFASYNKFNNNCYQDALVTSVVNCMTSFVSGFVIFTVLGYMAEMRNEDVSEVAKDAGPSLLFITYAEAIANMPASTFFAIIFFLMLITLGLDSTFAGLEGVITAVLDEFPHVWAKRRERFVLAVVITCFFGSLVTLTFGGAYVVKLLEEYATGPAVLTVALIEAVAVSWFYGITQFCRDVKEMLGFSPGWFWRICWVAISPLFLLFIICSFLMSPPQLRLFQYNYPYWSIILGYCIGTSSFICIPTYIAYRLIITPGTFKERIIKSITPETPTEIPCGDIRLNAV

With `C[n+]1ccc(-c2ccc(SS(C)(=O)=O)cc2)cc1`, the response was half-maximal at 31.6 µM (EC50).

With `C[N+](C)(C)CCSS(C)(=O)=O`, the half-maximal effective concentration (EC50) was determined as 501 µM.
